According to patent publication US20060067916A1, “Sperm cell process system” (XY, Inc., priority 2002, published 2006):

Test system: stallion sperm cells
Test: Motility of Hoechst-stained stallion sperm diluted in KMT with or without stimulant (Example 5)
Type: cell-based
Set-up: Motility 3h: unit not given here
Settings: for Motility 3h / Progressive 3h: Motility Stimulants, 2 mM caffeine or 2.5 mM NaPyruvate in KMT; for Motility 3h with stimulant / Progressive 3h with stimulant: in % (unit assumed)
Procedure: Sperm cells in ejaculates from three stallions were initially evaluated for volume, concentration, and motility. The remaining portion of each ejaculate was extended in KMT to 25×10^6 sperm/mL and stored at RT for 18 hr. The stored ejaculates were pelleted by centrifugation at 600 g for 10 min. Pelleted sperm cells were resuspended in KMT with Hoechst to generate sperm samples of 400×10^6 sperm/mL,12.4 μl Hoechst, adjusted to either 7.1 pH or 7.9 pH, and then incubated at 34° C. for either 30 min or 60 min. Stained sperm cell samples were extended with either 1 mL KMT with 1.5 μl/mL 5% red food dye; 1 mL KMT with 2.0 μl/mL 5% red food dye; 1 mL KMT with 2.5 μl/mL 5% red food dye; or 1 mL KMT with 3.0 μl/mL […] red food dye. Sperm cell samples were then evaluated for % dead and resolution by flow cytometry analysis, and motility was evaluated by further diluting treated samples in either 140 μl KMT: 20 μl sperm cells; 140 μl KMT 2 mM caffeine: 20 μl sperm cells; 140 μl KMT, 2.5 mM NaPyruvate: 20 μl sperm cells.

[1] = stain time 30 min (12 samples only)
[2] = stain time 60 min (12 samples only)

Row | SMILES | Motility 3h | Progressive 3h | Motility 3h with stimulant (food coloring 1.5 μl/mL) | Progressive 3h with stimulant (food coloring 1.5 μl/mL) | Motility 3h with stimulant (food coloring 2 μl/mL) | Progressive 3h with stimulant (food coloring 2 μl/mL) | Motility 3h with stimulant (food coloring 2.5 μl/mL) | Progressive 3h with stimulant (food coloring 2.5 μl/mL) | Motility 3h with stimulant (food coloring 3 μl/mL) | Progressive 3h with stimulant (food coloring 3 μl/mL) | Motility 3h with stimulant (pH 7.1, stain time 30 min) | Progressive 3h with stimulant (pH 7.1, stain time 30 min) | Motility 3h with stimulant (pH 7.1, stain time 60 min) | Progressive 3h with stimulant (pH 7.1, stain time 60 min) | Motility 3h with stimulant (pH 7.9, stain time 30 min) | Progressive 3h with stimulant (pH 7.9, stain time 30 min) | Motility 3h with stimulant (pH 7.9, stain time 60 min) | Progressive 3h with stimulant (pH 7.9, stain time 60 min) | Motility 3h with stimulant (stain pH 7.1) | Progressive 3h with stimulant (stain pH 7.1) | other results
1 | CC(=O)C(=O)O [Pyruvate, NaPyruvate] | 65.1 | 62.29 | 64.58 | 62.08 | 65 | 60.83 | 65.83 | 64.58 | 65 | 61.67 | 64.17 | 60.83 | 67.5 | 66.67 | 65 | 60 | 64.17 | 62.5 | 65.83 | 63.13 | Motility 3h with stimulant (stain pH 7.9): 64.38; Progressive 3h with stimulant (stain pH 7.9): 61.46; Motility 3h with stimulant [1]: 64.58; Progressive 3h with stimulant [1]: 60.42; Motility 3h with stimulant [2]: 65.83; Progressive 3h with stimulant [2]: 64.58; Motility 3h with stimulant (stallion Gunsmoke): 62.19; Progressive 3h with stimulant (stallion Gunsmoke): 56.56; Motility 3h with stimulant (stallion Rowdy): 67.19; Progressive 3h with stimulant (stallion Rowdy): 67.19; Motility 3h with stimulant (stallion Sylekt): 65.94; Progressive 3h with stimulant (stallion Sylekt): 63.13
2 | Cn1c(=O)c2c(ncn2C)n(C)c1=O [Caffeine, caffeine] | 67.71 | 66.56 | 66.67 | 65.42 | 68.33 | 67.5 | 68.75 | 67.92 | 67.08 | 65.42 | 66.67 | 65 | 70 | 70 | 66.67 | 65 | 67.5 | 65.83 | 68.54 | 67.5 | Effect of stimulant on sperm cell motility (FIG. 5) (about 2 mM): stimulate motility; Motility 3h with stimulant (stain pH 7.9): 66.88; Progressive 3h with stimulant (stain pH 7.9): 65.63; Motility 3h with stimulant [1]: 66.67; Progressive 3h with stimulant [1]: 65; Motility 3h with stimulant [2]: 68.75; Progressive 3h with stimulant [2]: 67.92; Motility 3h with stimulant (stallion Gunsmoke): 66.25; Progressive 3h with stimulant (stallion Gunsmoke): 63.13; Motility 3h with stimulant (stallion Rowdy): 67.5; Progressive 3h with stimulant (stallion Rowdy): 67.5; Motility 3h with stimulant (stallion Sylekt): 69.38; Progressive 3h with stimulant (stallion Sylekt): 69.06
